In patent US8304453B2, “Composition comprising at least one alkanolamide to inhibit migration of langerhans cells and uses therof” (Laboratoires Expanscience, priority 2001, dated 2012):

How the values were obtained:
dendritic cells [1] = experiment: Migration of dendritic cells to draining ganglions in mouse sensitised by FITC hapten (AK100 ± OX100, Example 5); assay type: in vivo; conditions: for Migration inhibition in %: FITC
Method: FITC (Fluoresceine isothiocyanate, Sigma, St. Louis, Mo.) was diluted extemporaneously in a mixture of acetone and dibutylphthalate (1:1).
Alkanolamide AK100 and OX100 (described above) were supplied by “Laboratoires Expanscience” and formulated alone or in association in an inert vehicle compatible with a topical application [AK100 (0.05%)±OX100 (0.05%)]. The different formulations were applied on the ears of mice twice per day for 4 consecutive days. Three hours after the last application, 1.5% of FITC was applied on both ears (one treated and the other not treated (Control)).
The effect of the two molecules was evaluated in vivo in the mouse. 1.5% FITC (2×5 μl) was applied on the skin of both ears. 24 h later, the mice were sacrificed and a cellular suspension was prepared from auricular and cervical ganglions (draining ganglions, hereinafter denoted GL) or from the poplital ganglions (non-draining ganglions, negative control). The tissues were cut and cells separated by filtration (100 μm filter, Falcon; Becton Dickinson) and then washed. The cells were then centrifuged for 10 minutes at 600×g (m×s^−2) on a metrizamide gradient (14.5% in RPMI 1640; 7.5% SVF). The interface cells were retrieved, rinsed and then marked with an anti-CDS86 PE-conjugated, biot-MHC CLII mAbs AC plus streptavidine-Cya (PharMingen) and analysed by flux cytometry. Only the FITC^+, PE^+ and Cya^+ cells are counted since they represent the population of cells that migrated from the skin to GLs following the application of hapten.

[2] = system: Langerhans cells freshly isolated from human skin; experiment: Migration of Langerhans cells freshly isolated from human skin, activated by DNSB (two-compartment Matrigel chamber); assay type: cell-based
Method: Epidermal cell suspensions were obtained by enzymatic treatment (0.05% trypsine for 18 h at +4° C.) of fragments of normal human skin taken from plastic surgery. The suspensions obtained contain an average of 2 to 4% of LC. Obtaining suspensions containing an average of 70% of LC is based on the principle of centrifuging on density gradient (Lymphoprep™) and elimination of keratinocytes.
The basic medium chosen for the entire study was PRMI 1640 (Gibco BRL, France). The AK100 molecule supplied by Pharmascience, with a concentration of 10^−2 M in solution in DMSO (Dimethyl Sulfoxide) was diluted in RPMI-1640 and tested at 1 μM.
The sensitising agent was DNSB (Sigma Aldrich), a soluble form of DNCB (dinitro-chloro-benzene) solubilised in RPMI-BSA and used at a concentration of 50 μM.
A culture chamber system with two compartments (Falcon, Becton Dickinson, France) was used. The upper compartment is separated from the lower compartment by a membrane with 8 μm porosity, on which 50 μg/cm^2 Matrigel was deposited. […] After 18 h incubation at 37° C., the number of living cells that passed through the Matrigel and that are located in the lower compartment is counted under a microscope (the LCs are easily identifiable by their dendritic form). […]

dendritic cells [3] = experiment: Migration of dendritic cells to draining ganglions in mouse sensitised by FITC hapten (AK100 ± LU105, Example 4); assay type: in vivo
Description: FITC (Fluoresceine isothiocyanate, Sigma, St Louis, Mo.) was extemporaneously diluted in an acetone mix (dibutylphthalate (1:1)).
Alkanolamide AK100 and LU105 (LU 105 is an MMP inhibitor, corresponding to a peptide extract of white lupin marketed by the Expanscience Company under the brand name Actimp (193®) were supplied by “Laboratoires Expanscience” and formulated alone or association with each other in an inert vehicle compatible with a topical application (alkanolamide AK100 (0.1%)± LU105 (2%)). The different formulations were applied on the ears of mice twice per day for 4 consecutive days. 1.5% of FITC was applied on both ears (one treated and the other not treated (Control)) three hours after the last application.
The effect of the two molecules was evaluated in vivo in the mouse. 1.5% FITC (2×5 μl) was applied on the skin of both ears. […] The cells were then centrifuged for 10 minutes at 600×g (m×s^−2) on a metrizamide gradient (14.5% in RPMI 1640; 7.5% SVF) The interface cells were retrieved, rinsed and then marked with an anti-CDS86 PE-conjugated, biot-MHC CLII mAbs AC plus streptavidine-Cya (PharMingen) and analysed by flux cytometry. Only the FITC^+, PE^+ and Cya^+ cells are counted since they represent the population of cells that migrated from the skin to GLs following the application of hapten.

[4] = system: dendritic cells generated in vitro from CD34+ precursors derived from blood from the umbilical cord; experiment: Migration of dendritic cells generated in vitro from CD34+ precursors of umbilical cord blood, activated by hapten BB; assay type: cell-based, human; conditions: for Percentage of dendritic cells generated in vitro that migrated: BB + AK100 1 μM; for inhibition at 1 µM: Homo sapiens, Dendritic cell
Method: Mononucleated cells were obtained from blood from the umbilical cord of healthy donors by centrifuging on Ficoll. The CD34+ cells were then purified by immunoselection using a specific antibody and magnetic balls (Miltenyi Biotech, Germany). The CD34+ cells were cultivated in the presence of GM-CSF (100 ng/ml), TNF-α (2.5 ng/ml) in RPMI to which 10% calf foetus serum was added for 5 days. TGF-β1, a factor that encourages differentiation of cells to the Langerhans cells […], was added on the 5th day of culture.
Cells were treated by hapten BB on the 7th day (Brandowski base, 1.17 μg/ml) for 24 h, and were then subjected to the migration test.
The results represent the percentage of cells that migrated in the presence of the different tested products. The percentage is calculated by taking the ratio of the number of cells recovered in the lower compartment of the migration chamber, to the number of cells subjected to migration. AK100 inhibits the migration of dendritic cells by 51 and 25% in experiments 1 and 2 respectively.

[5] = mice sensitised by FITC hapten, topical

| Structure (SMILES) | Migration inhibition in % (dendritic cells [1]; OX100 0.05% topical on ears twice per day for 4 days) [%] | Inhibition of migration of LCs induced by DNSB ([2]; 1 μM) | LC migration index ([2]; DNSB 50 μM + AK100 1 μM, 18 h, control cells set to 1, DNSB alone 2.55) | Migration inhibition in % (dendritic cells [3]; 0.1% topical on ears twice per day for 4 days, FITC) [%] | Inhibition of migration of DCs to LGs (dendritic cells [3]; [5]) | Migration inhibition in % (dendritic cells [1]; AK100 0.05% topical on ears twice per day for 4 days) [%] | Inhibition of migration of DCs to LGs (dendritic cells [1]; [5]) | Inhibition of migration of dendritic cells activated by hapten BB ([4]; 1 μM) | Percentage of dendritic cells generated in vitro that migrated ([4]; Experiment 1, BB alone 17) [%] | Percentage of dendritic cells generated in vitro that migrated ([4]; Experiment 2, BB alone 24) [%] | inhibition at 1 µM ([4]; Experiment 1, 1 μM) [%] | inhibition at 1 µM ([4]; Experiment 2, 1 μM) [%] |
| --- | --- | --- | --- | --- | --- | --- | --- | --- | --- | --- | --- | --- |
| CCCCCCCCCCCC1=NC(C)(C)CO1 [OX100, 2-undecyl-4,4-dimethyl-1,3-oxazoline] | 15 |  |  |  |  |  |  |  |  |  |  |  |
| CCCCCCCCCCCC(=O)NC(C)(C)CO [AK100] |  | significantly inhibits | 1.11 | 30 | significantly inhibits | 15 | significantly inhibits | significantly inhibits | 8.4 | 18 | 51 | 25 |
